What was measured:
JAK1 = JAK1 (Homo sapiens (Human), UniProt P23458); assay: Biochemical JAK kinase assay (LanthaScreen), JAK1; conditions: for Ki: read-out: JAK1 pKi (converted)
Outline: (§1)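 LanthaScreen format: phospho-STAT1 (pTyr701) detected with 2 nM Tb antibody after 10 mM EDTA quench. Kinase step used Km-level ATP and 200 nM STAT1 peptide, 1 h at ambient after 1 h pre-incubation. Inhibition fitted to IC50, reported as pKi.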

TYK2 = TYK2 (Homo sapiens (Human), UniProt P29597); assay: Biochemical JAK kinase assay (LanthaScreen), Tyk2; conditions: read-out: Tyk2 pKi (converted)
Sequence of TYK2 (P29597 whole entry): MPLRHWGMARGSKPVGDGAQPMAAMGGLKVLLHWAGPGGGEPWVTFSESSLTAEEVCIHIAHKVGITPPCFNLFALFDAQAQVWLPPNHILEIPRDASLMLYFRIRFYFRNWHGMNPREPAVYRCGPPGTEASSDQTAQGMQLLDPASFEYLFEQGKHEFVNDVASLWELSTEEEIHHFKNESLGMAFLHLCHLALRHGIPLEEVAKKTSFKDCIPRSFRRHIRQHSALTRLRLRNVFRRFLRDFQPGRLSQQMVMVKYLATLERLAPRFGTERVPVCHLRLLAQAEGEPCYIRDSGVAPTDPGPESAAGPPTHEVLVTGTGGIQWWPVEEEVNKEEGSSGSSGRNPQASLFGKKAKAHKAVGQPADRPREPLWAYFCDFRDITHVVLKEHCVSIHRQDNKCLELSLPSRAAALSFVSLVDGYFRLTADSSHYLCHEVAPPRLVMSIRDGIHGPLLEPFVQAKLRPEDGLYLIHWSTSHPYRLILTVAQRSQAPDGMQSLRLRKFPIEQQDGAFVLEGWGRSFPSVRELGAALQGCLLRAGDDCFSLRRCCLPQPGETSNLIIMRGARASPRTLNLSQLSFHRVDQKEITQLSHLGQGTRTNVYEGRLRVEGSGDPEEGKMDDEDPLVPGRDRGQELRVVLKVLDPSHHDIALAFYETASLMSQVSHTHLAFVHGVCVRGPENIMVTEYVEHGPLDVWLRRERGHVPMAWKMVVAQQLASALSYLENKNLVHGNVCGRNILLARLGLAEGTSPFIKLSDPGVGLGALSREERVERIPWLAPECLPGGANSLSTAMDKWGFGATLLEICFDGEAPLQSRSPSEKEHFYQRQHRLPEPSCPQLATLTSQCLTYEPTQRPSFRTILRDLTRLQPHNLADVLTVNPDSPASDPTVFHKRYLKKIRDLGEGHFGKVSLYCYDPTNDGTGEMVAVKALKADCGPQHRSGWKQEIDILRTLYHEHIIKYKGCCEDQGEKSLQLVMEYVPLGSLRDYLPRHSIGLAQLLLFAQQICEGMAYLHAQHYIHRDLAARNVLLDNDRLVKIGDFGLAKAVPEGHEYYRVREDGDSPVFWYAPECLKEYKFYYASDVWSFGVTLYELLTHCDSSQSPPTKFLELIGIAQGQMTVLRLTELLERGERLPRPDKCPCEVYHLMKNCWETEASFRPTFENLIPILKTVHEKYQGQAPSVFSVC
Experimental: A panel of four LanthaScreen JAK biochemical assays (JAK1, 2, 3 and Tyk2) were carried in a common kinase reaction buffer (50 mM HEPES, pH 7.5, 0.01% Brij-35, 10 mM MgCl2, and 1 mM EGTA). Recombinant GST-tagged JAK enzymes and a GFP-tagged STAT1 peptide substrate were obtained from Life Technologies.
Serially diluted compounds were pre-incubated with each of the four JAK enzymes and the substrate in white 384-well microplates (Corning) at ambient temperature for 1 h. ATP was subsequently added to initiate the kinase reactions in 10 μL total volume, with 1% DMSO. The final enzyme concentrations for JAK1, 2, 3 and Tyk2 are 4.2 nM, 0.1 nM, 1 nM, and 0.25 nM respectively; the corresponding Km ATP concentrations used are 25 μM, 3 μM, 1.6 μM, and 10 μM; while the substrate concentration is 200 nM for all four assays. Kinase reactions were allowed to proceed for 1 hour at ambient temperature before a 10 μL preparation of EDTA (10 mM final concentration) and Tb-anti-pSTAT1 (pTyr701) antibody (Life Technologies, 2 nM final concentration) in TR-FRET dilution buffer (Life Technologies) was added. The plates were allowed to incubate at ambient temperature for 1 h before being read on the EnVision reader (Perkin Elmer). Emission ratio signals (520 nm/495 nm) were recorded and utilized to calculate the percent inhibition values based on DMSO and background controls.
For dose-response analysis, percent inhibition data were plotted vs. compound concentrations, and IC50 values were determined from a 4-parameter robust fit model with the Prism software (GraphPad Software). Results were expressed as pIC50 (negative logarithm of IC50) and subsequently converted to pKi (negative logarithm of dissociation constant, Ki) using the Cheng-Prusoff equation.
Test compounds having a lower Ki value or higher pKi value in the four JAK assays show greater inhibition of JAK activity.

[1] = tested on: IL-13 induced STAT6 phosphorylation in BEAS-2B human lung epithelial cells; assay: Cellular JAKI potency assay (BEAS-2B); format: cell-based; conditions: BEAS-2B cells; for IC50: Homo sapiens, BEAS-2B, read-out: BEAS2B pIC50 (converted)
Outline: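 BEAS-2B cells were preincubated with compound (0.1% DMSO) in HBSS/HEPES/BSA for 1 h at 37 °C, then stimulated with IL-13 (80 ng/mL before addition) for 30 min. After lysis, pSTAT6 (Tyr641) was quantified by AlphaLISA SureFire; IC50 from a 4-parameter fit of percent inhibition, reported as pIC50.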

JAK2 = JAK2 (Homo sapiens (Human), UniProt O60674); assay: Biochemical JAK kinase assay (LanthaScreen), JAK2; conditions: for Ki: read-out: JAK2 pKi (converted)
Sequence of JAK2 (O60674 whole entry): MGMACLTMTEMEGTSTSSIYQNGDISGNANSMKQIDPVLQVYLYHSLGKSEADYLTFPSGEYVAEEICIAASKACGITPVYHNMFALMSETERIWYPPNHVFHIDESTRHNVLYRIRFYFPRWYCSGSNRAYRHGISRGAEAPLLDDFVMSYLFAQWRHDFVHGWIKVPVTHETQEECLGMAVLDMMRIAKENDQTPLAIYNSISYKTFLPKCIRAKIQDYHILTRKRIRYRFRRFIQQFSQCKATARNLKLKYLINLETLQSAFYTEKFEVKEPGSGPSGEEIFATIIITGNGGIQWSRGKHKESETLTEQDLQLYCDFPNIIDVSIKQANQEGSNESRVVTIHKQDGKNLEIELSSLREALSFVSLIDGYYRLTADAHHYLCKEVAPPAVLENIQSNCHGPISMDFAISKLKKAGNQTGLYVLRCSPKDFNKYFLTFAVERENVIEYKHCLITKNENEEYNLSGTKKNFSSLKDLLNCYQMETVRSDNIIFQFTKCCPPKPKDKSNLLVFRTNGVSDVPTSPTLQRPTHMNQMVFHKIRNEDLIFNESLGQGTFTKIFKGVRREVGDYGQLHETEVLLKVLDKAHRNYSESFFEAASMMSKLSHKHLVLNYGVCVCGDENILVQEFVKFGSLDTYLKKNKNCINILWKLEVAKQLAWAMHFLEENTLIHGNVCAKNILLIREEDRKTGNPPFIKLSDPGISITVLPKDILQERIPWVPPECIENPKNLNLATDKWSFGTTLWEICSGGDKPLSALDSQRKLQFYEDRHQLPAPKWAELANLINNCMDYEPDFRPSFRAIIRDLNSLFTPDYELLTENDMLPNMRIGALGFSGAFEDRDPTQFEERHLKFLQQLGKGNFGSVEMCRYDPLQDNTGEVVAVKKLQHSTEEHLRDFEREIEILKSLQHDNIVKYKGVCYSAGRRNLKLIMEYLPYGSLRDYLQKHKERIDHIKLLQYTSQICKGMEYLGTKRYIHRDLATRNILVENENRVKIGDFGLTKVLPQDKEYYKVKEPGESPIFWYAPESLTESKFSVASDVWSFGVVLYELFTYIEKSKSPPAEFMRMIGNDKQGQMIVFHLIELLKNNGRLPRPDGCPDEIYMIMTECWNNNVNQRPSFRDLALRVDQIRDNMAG
Outline: as §1

Sequence of JAK1 (P23458 whole entry): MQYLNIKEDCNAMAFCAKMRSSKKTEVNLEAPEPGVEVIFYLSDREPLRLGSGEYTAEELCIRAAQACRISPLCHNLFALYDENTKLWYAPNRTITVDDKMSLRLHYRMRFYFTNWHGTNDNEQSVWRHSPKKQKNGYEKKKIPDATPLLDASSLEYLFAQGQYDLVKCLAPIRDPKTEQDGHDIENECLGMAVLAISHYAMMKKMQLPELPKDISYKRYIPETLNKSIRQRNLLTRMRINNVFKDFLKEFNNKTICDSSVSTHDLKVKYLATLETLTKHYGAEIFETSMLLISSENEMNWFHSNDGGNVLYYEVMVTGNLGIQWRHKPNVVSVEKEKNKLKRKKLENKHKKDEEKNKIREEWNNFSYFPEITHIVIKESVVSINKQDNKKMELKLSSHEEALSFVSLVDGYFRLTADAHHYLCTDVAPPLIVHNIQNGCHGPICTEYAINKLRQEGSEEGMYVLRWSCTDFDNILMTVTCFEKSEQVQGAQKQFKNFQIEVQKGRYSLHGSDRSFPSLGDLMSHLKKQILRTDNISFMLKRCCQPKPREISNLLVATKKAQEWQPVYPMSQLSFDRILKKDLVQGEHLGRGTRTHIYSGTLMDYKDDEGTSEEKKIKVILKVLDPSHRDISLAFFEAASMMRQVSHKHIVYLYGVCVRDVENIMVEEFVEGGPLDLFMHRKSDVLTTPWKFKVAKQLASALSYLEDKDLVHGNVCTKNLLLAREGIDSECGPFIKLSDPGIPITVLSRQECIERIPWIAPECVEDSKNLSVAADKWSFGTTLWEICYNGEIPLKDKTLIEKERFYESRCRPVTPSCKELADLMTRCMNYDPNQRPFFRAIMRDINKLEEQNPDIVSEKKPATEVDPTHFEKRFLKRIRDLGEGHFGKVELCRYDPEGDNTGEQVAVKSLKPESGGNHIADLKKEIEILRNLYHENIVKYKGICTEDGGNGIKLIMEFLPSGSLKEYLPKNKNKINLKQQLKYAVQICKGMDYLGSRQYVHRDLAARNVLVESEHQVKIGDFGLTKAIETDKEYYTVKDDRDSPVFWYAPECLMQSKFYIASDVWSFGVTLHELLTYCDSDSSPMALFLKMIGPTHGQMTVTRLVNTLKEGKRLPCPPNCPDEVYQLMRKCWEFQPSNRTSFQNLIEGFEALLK

CCc1cc(O)ccc1-c1ccc2c(-c3nc(C4=CCN(CCNC)CC4)c[nH]3)n[nH]c2c1F [Example 188]
Ki (JAK1): 0.1 to 1 nM | Ki (TYK2): 1 to 10 nM | IC50 [1]: 31.6 to 100 nM

CCc1cc(O)ccc1-c1ccc2c(-c3nc(C4=CCN(S(=O)(=O)C5CNC5)C4)c[nH]3)n[nH]c2c1F [Example 180]
Ki (JAK1): 1 to 10 nM | Ki (TYK2): 10 to 100 nM | IC50 [1]: 31.6 to 100 nM

CCc1cc(O)ccc1-c1ccc2c(-c3nc(C4=CC[C@H](C)N(CC(=O)NC)C4)c[nH]3)n[nH]c2c1F [Example 275]
Ki (JAK1): 0.1 to 1 nM | Ki (JAK2): 0.1 to 1 nM | IC50 [1]: 10 to 31.6 nM

Oc1ccc(-c2ccc3c(-c4nc(C5=CCNCC5)c[nH]4)n[nH]c3c2F)c(CC(F)(F)F)c1 [Example 387]
Ki (JAK1): 1 to 10 nM | Ki (JAK2): 0.1 to 1 nM | IC50 [1]: 31.6 to 100 nM

CCc1cc(O)ccc1-c1ccc2c(-c3nc(C4=CCCN(CCNC(C)=O)C4)c[nH]3)n[nH]c2c1F [Example 112]
Ki (JAK1): 0.1 to 1 nM | Ki (JAK2): 0.1 to 1 nM | IC50 [1]: 10 to 31.6 nM

CCc1cc(O)ccc1-c1ccc2c(-c3nc(C4=CCN(CC5COC5)C4)c[nH]3)n[nH]c2c1F [Example 74]
Ki (JAK1): 0.1 to 1 nM | JAK2 pKi (JAK2): A (A represents a pKi value ≥10 (Ki≤0.1 nM)) | IC50 [1]: 10 to 31.6 nM

CCc1cc(O)ccc1-c1ccc2c(-c3nc(C4=CCCNC4C)c[nH]3)n[nH]c2c1F (stereo not drawn) [Example 237]
Ki (JAK1): 0.1 to 1 nM | JAK2 pKi (JAK2): A (A represents a pKi value ≥10 (Ki≤0.1 nM)) | IC50 [1]: 10 to 31.6 nM

CCc1cc(O)ccc1-c1ccc2c(-c3nc(C4=CCN([C@H]5CC[C@@H](O)CC5)C4)c[nH]3)n[nH]c2c1 [Example 287]
JAK1 pKi (JAK1): A (A represents a pKi value ≥10 (Ki≤0.1 nM)) | JAK2 pKi (JAK2): A (A represents a pKi value ≥10 (Ki≤0.1 nM)) | IC50 [1]: 3.16 to 10 nM

CCc1cc(O)ccc1-c1ccc2c(-c3nc(C4=C[C@@H](CO)N(C)C4)c[nH]3)n[nH]c2c1F [Example 344]
Ki (JAK1): 0.1 to 1 nM | Ki (JAK2): 0.1 to 1 nM | IC50 [1]: 10 to 31.6 nM

CCc1cc(O)ccc1-c1ccc2c(-c3nc(C4=CCNC5(CC5)C4)c[nH]3)n[nH]c2c1F [Example 352]
Ki (JAK1): 0.1 to 1 nM | Ki (JAK2): 0.1 to 1 nM | IC50 [1]: 31.6 to 100 nM

CCc1cc(O)ccc1-c1ccc2c(-c3nc(C4=CCN(Cc5cn[nH]c5)CC4)c[nH]3)n[nH]c2c1F [Compound 11, 4-(3-(4-(1-((1H-pyrazol-4-yl)methyl)-1,2,3,6-tetrahydropyridin-4-yl)-1H-imidazol-2-yl)-7-fluoro-1H-indazol-6-yl)-3-ethylphenol]
Ki (JAK1): 0.1 to 1 nM | JAK2 pKi (JAK2): A (A represents a pKi value ≥10 (Ki≤0.1 nM)) | IC50 [1]: 10 to 31.6 nM

CCc1cc(O)ccc1-c1ccc2c(-c3nc(C4=CCN(CCC5(O)CC5)CC4)c[nH]3)n[nH]c2c1F [Example 322]
Ki (JAK1): 0.1 to 1 nM | Ki (JAK2): 0.1 to 1 nM | IC50 [1]: 10 to 31.6 nM

CCc1cc(O)ccc1-c1ccc2c(-c3nc(C4=CCCN(CCN5CCNC5=O)C4)c[nH]3)n[nH]c2c1 [Example 124]
JAK1 pKi (JAK1): A (A represents a pKi value ≥10 (Ki≤0.1 nM)) | JAK2 pKi (JAK2): A (A represents a pKi value ≥10 (Ki≤0.1 nM)) | IC50 [1]: 3.16 to 10 nM

CCc1cc(O)ccc1-c1ccc2c(-c3nc(C4=C[C@H](CO)N(CCO)C4)c[nH]3)n[nH]c2c1F [Example 263]
JAK1 pKi (JAK1): A (A represents a pKi value ≥10 (Ki≤0.1 nM)) | JAK2 pKi (JAK2): A (A represents a pKi value ≥10 (Ki≤0.1 nM)) | IC50 [1]: 10 to 31.6 nM

CCc1cc(O)ccc1-c1ccc2c(-c3nc(C4=CCN(S(C)(=O)=O)C4)c[nH]3)n[nH]c2c1F [Example 172]
Ki (JAK1): 1 to 10 nM | Ki (JAK2): 0.1 to 1 nM | IC50 [1]: 10 to 31.6 nM

CCc1cc(O)ccc1-c1ccc2c(-c3nc(C4=CCN(C5CCOCC5)C4)c[nH]3)n[nH]c2c1 [Example 72]
JAK1 pKi (JAK1): A (A represents a pKi value ≥10 (Ki≤0.1 nM)) | JAK2 pKi (JAK2): A (A represents a pKi value ≥10 (Ki≤0.1 nM)) | IC50 [1]: 3.16 to 10 nM

CCc1cc(O)ccc1-c1ccc2c(-c3nc(C4=CCNC(CC)C4)c[nH]3)n[nH]c2c1F (stereo not drawn) [Example 346]
Ki (JAK1): 1 to 10 nM | Ki (JAK2): 0.1 to 1 nM | IC50 [1]: 10 to 31.6 nM

CCc1cc(O)ccc1-c1ccc2c(-c3nc(C4=C[C@@H](CC(=O)N(C)C)NC4)c[nH]3)n[nH]c2c1F [Example 256]
JAK1 pKi (JAK1): A (A represents a pKi value ≥10 (Ki≤0.1 nM)) | JAK2 pKi (JAK2): A (A represents a pKi value ≥10 (Ki≤0.1 nM)) | IC50 [1]: 31.6 to 100 nM

CCc1cc(O)ccc1-c1ccc2c(-c3nc(C4=CCNC(C)(C)C4)c[nH]3)n[nH]c2c1F [Example 377]
Ki (JAK1): 0.1 to 1 nM | Ki (JAK2): 0.1 to 1 nM | IC50 [1]: 31.6 to 100 nM

CCc1cc(O)ccc1-c1ccc2c(-c3nc(C4=CCN(C5CCC(O)CC5)CC4)c[nH]3)n[nH]c2c1F (stereo not drawn) [Example 121]
Ki (JAK1): 0.1 to 1 nM | JAK2 pKi (JAK2): A (A represents a pKi value ≥10 (Ki≤0.1 nM)) | IC50 [1]: 10 to 31.6 nM

CCc1cc(O)ccc1-c1ccc2c(-c3nc(C4=CCCN(CCNC(C)=O)C4)c[nH]3)n[nH]c2c1 [Example 109]
Ki (JAK1): 0.1 to 1 nM | Ki (JAK2): 0.1 to 1 nM | IC50 [1]: 10 to 31.6 nM

CCc1cc(O)ccc1-c1ccc2c(-c3nc(C4=CCCN(CCSC)C4)c[nH]3)n[nH]c2c1 [Example 86]
Ki (JAK1): 0.1 to 1 nM | Ki (JAK2): 0.1 to 1 nM | IC50 [1]: 10 to 31.6 nM

CCc1cc(O)ccc1-c1ccc2c(-c3nc(C4=CCNC(CC)C4)c[nH]3)n[nH]c2c1 (stereo not drawn) [Example 312]
Ki (JAK1): 0.1 to 1 nM | Ki (JAK2): 0.1 to 1 nM | IC50 [1]: 10 to 31.6 nM

CCc1cc(O)ccc1-c1ccc2c(-c3nc(C4=CCN[C@H](CO)C4)c[nH]3)n[nH]c2c1F [Example 392]
JAK1 pKi (JAK1): B (B represents a pKi value between 9 (included) and 10 (Ki between 1 nM and 0.1 nM)) | JAK2 pKi (JAK2): B (B represents a pKi value between 9 (included) and 10 (Ki between 1 nM and 0.1 nM)) | BEAS2B pIC50 [1]: D (D represents a pIC50 value between 6.5 (included) and 7)

CCc1cc(O)ccc1-c1ccc2c(-c3nc(C4=CCN(C5CCC5)C4)c[nH]3)n[nH]c2c1F [Example 303]
JAK1 pKi (JAK1): A (A represents a pKi value ≥10 (Ki≤0.1 nM)) | JAK2 pKi (JAK2): A (A represents a pKi value ≥10 (Ki≤0.1 nM)) | IC50 [1]: 10 to 31.6 nM

Oc1ccc(-c2ccc3c(-c4nc(C5=CCNCC5)c[nH]4)n[nH]c3c2)c(CC(F)(F)F)c1 [Example 369]
Ki (JAK1): 0.1 to 1 nM | Ki (JAK2): 0.1 to 1 nM | IC50 [1]: 31.6 to 100 nM

CCc1cc(O)ccc1-c1ccc2c(-c3nc(C4=CCN(CCCO)C4)c[nH]3)n[nH]c2c1 [Example 297]
Ki (JAK1): 0.1 to 1 nM | Ki (JAK2): 0.1 to 1 nM | IC50 [1]: 10 to 31.6 nM

CCc1cc(O)ccc1-c1ccc2c(-c3nc(C4=CC[C@H](C)N(CCC(C)(C)O)C4)c[nH]3)n[nH]c2c1F [Example 260]
Ki (JAK1): 0.1 to 1 nM | Ki (JAK2): 0.1 to 1 nM | IC50 [1]: 10 to 31.6 nM

CCc1cc(O)ccc1-c1ccc2c(-c3nc(C4=CCCN(CCNS(C)(=O)=O)C4)c[nH]3)n[nH]c2c1 [Example 108]
Ki (JAK1): 0.1 to 1 nM | JAK2 pKi (JAK2): A (A represents a pKi value ≥10 (Ki≤0.1 nM)) | IC50 [1]: 10 to 31.6 nM

CCc1cc(O)ccc1-c1ccc2c(-c3nc(C4=CCN[C@H](CO)C4)c[nH]3)n[nH]c2c1F [Example 386]
Ki (JAK1): 0.1 to 1 nM | Ki (JAK2): 0.1 to 1 nM | BEAS2B pIC50 [1]: C (C represents a pIC50 value between 7 (included) and 7.5)

From US20240092758A1, “IMIDAZOLO INDAZOLE COMPOUNDS AS JAK INHIBITORS” (Theravance Biopharma R&D IP, LLC, priority 2021, published 2024)
